The structures appear in SMILES notation.

Results on 89 compounds are retold here after a melting point compilation (Tetko et al.; mined from patent text by program, amines drawn as free bases though some values may be those of a salt).

For orientation: melting point means the temperature of the solid-liquid transition. The compound `CC(C)(C)OC(=O)CC1=CCCCC1n1nc(-c2c(-c3ccccc3)nn3ccccc23)ccc1=O` (centres undefined) registered a melting point of 146 to 147 °C.

`Cc1ccc(S(=O)(=O)ON=C2CC(c3ccccc3)Oc3ccccc32)cc1` (centres undefined): the melting point was 141 to 143 °C.

Compound `CCCCCCCCNC(=O)C1=C(C(=O)Nc2cc(OC3CCCC3)c(Cl)cc2F)CCCC1` yielded a melting point of 127 to 130 °C.

In the case of `CN1C(=O)CC[C@]2(C)c3ccc(-c4cccc(C(F)(F)F)c4)cc3CC[C@@H]12`, the melting point was in the range of 64 to 87 °C.

As for `Cc1oc(-c2ccccc2)nc1CCOc1ccc(CC(C(=O)O)C(=O)O)cc1`, the melting point lay within 173 to 175 °C.

`CCOC(=O)c1ccc2sc(C=Cc3cccnc3)c(C)c2c1` returned a melting point of 123 to 124 °C.

`CNC(=O)c1ccnc(N2CCN(Cc3ccc(F)cc3)C2=O)c1` gave a melting point of 118 to 120 °C.

For `CS(=O)(=O)c1ccc(C(O)C(CF)N=[N+]=[N-])cc1` (centres undefined), the melting point lay within 121 to 123 °C.

`CSc1nc(O)cc(O)n1`: the melting point was above 250 °C.

The compound `NS(=O)(=O)c1ccc(NN=Cc2ccc(Cl)cc2)cc1` displayed a melting point of 181 to 182 °C.

On to `Cc1ccc(C2CCN(c3c(C)c(C)c4c(c3C)[C@@H](c3ccc(C)cc3)C(C)(C)O4)CC2)cc1`, for which the melting point was in the range of 165 to 167 °C.

`Cc1cc(N)nc(CCc2nc3cc(-c4ccc(S(=O)(=O)N5CCCC5)cc4)cnc3[nH]2)c1`: the melting point turned out to be 171 °C.

The compound `O=C(CCCC1CCCCCCCCCCC1)C1=C(O)CSC1=O` registered a melting point of 62 to 69 °C.

In turn, `CCCOc1cc(C(=O)CCC(=O)O)ccc1OCC` registered a melting point of 116 to 117 °C.

On to `Cc1ccc(S(=O)(=O)n2c3cccc(CCl)c3c3c(C)ccc(C)c32)cc1`, for which the melting point amounted to 149 °C.

The compound `CCNS(=O)(=O)c1ccc(Cl)c(C)c1C#N` returned a melting point of 85 to 90 °C.

The compound `CCCCCCCCCCCCCCCCCC(=O)NN(C(=O)CCCCCCCCCCCCCCCCC)C(=O)CCCCC(=O)NN` registered a melting point of 244 °C.

`Cc1oc(-c2ccc(-c3ccc(-c4nc(CCO)c(C)o4)cc3)cc2)nc1CCO` registered a melting point of 134 to 135 °C.

Compound `CCN(CCOC)C(=O)c1cc(-c2ccccc2)c(=O)n2c1-c1ccccc1C2` showed a melting point of 139 to 140 °C.

For the compound `Cc1ccc(CS(=O)c2nc3cc4c(cc3[nH]2)OC(F)C(F)(F)O4)nc1` (centres undefined), the melting point was 186 to 187 °C.

`CC(C)(C)COc1ccc(NC(=O)c2cc3ccccc3n2CC(=O)O)cc1C#N` gave a melting point of 194 to 195 °C.

`Cc1ccc(-c2ccccc2-c2n[nH]c(=O)n2C)cc1` showed a melting point of 181 to 182 °C.

`COC(=O)CC(C)(C)C(C)(C)S(=O)(=O)c1ccc(C)cc1` showed a melting point of 90 °C.

Turning to `CCCNC(=O)CC=Cc1ccc2c(c1)c(Cc1ccc(C(=O)OC)cc1OC)cn2CCC`, the melting point fell in the range of 140 to 142 °C.

As for `Cc1cccc(C)c1CNc1cc(C(=O)O)cc2c1nc(C)n2C`, the melting point lay in the range of 315 to 318 °C.

Regarding `CCC(=O)N1Cc2cn[nH]c2-c2cc([N+](=O)[O-])ccc21`, the melting point was in the range of 219 to 221 °C.

The compound `CC(C)c1nc(C(O)(C(F)(F)F)C(F)(F)F)[nH]c1-c1ccccc1` came in with a melting point of 80 to 81 °C.

The compound `Cc1c(CC=CN2CCN3c4cc(F)ccc4CCC3C2)cnn1-c1cc(N(C)C)nc(N)n1` (centres undefined) showed a melting point of 205 °C.

`COc1cc(C)c(C(O)c2c(Cl)cnc(Cl)c2C(F)(F)F)c(OC)c1OC` (centres undefined) had a melting point of 162 to 165 °C.

In turn, `O=c1[nH]c2cc(Cl)ccc2c(O)c1Sc1ccccc1Cl` registered a melting point above 300 °C.

`CCc1nn(CCO)c(N)c1Cc1cc(Cl)cc(Cl)c1` displayed a melting point of 135 °C.

With `N#CCCN1C(=O)C2(COc3cc4c(cc32)OCO4)c2ccccc21` (centres undefined), the melting point lay within 200 to 202 °C.

As to `CCC(CC)(CC(=O)Nc1cccc(OCc2ccc3ccc(C(C)=O)cc3n2)c1)C(=O)O`, the melting point was 164 °C.

Consider `COc1cc(C(=O)N2CCC(N3CCC(Oc4ccc(F)c(F)c4)CC3)C2)ccc1N` (centres undefined), for which the melting point fell in the range of 138 to 139 °C.

For the compound `O=C(c1ccc(Cl)nc1)N1Cc2cccn2Cc2ccccc21`, the melting point fell in the range of 165 to 167 °C.

Consider `COc1ccc2nc(COc3ccc(CC(S)C(N)=O)cc3)n(C)c2c1` (centres undefined), for which the melting point is 204 to 208 °C.

`COc1ccc(Nc2ccccc2)c2ccccc12` gave a melting point of 108 to 110 °C.

On to `COc1ccc(Oc2c(C)cc(N)cc2C)cc1C(C)C`, for which the melting point lay in the range of 95 to 100 °C.

`CCc1nc2c(N)nc(C)c(C)c2n1CCOCCNC(=O)C1CCCCC1`: the melting point lay within 170 to 172 °C.

`CN(C)S(=O)(=O)c1cccc(NC(=O)c2cnn3c(C(F)(F)F)cc(-c4ccc(C(F)(F)F)cc4)nc23)c1`: the melting point was 210 °C.

`Cc1cc(Oc2ncc(C(F)(F)F)cc2Cl)nn1C(=O)Nc1cccc(Cl)c1` had a melting point of 129 to 130 °C.

The compound `CC(C(=O)O)c1ccc(-c2ccc(F)cc2)c(Br)c1` (centres undefined) registered a melting point of 129 to 131 °C.

As for `CC(C)(C)OC(=O)NC(C(=O)O)c1ccc(O)cc1` (centres undefined), the melting point is 112 to 114 °C.

Consider `CC(C)CCC1C(=O)N(c2c(F)c(F)nc(F)c2F)S(=O)(=O)N1C` (centres undefined), for which the melting point was in the range of 80.5 to 81.5 °C.

Consider `CCCOc1ccc2c(c1)[C@H](c1ccc(OC)cc1-c1ccccc1)[C@@H](C(=O)O)[C@@H]2c1ccc2c(c1)OCO2` (racemic), for which the melting point lay within 199 to 200 °C.

`CC(=O)C1C(=O)N(C(=O)Nc2ccc(F)cc2)c2ccccc21` (centres undefined) had a melting point of 181 to 182 °C.

The compound `CCNc1ccc(C(=O)Nc2ccc(OC)cc2)c(NC(=O)c2ccc(C(C)(C)C)cc2)c1` registered a melting point of 205 to 208 °C.

As to `CN1CCN(c2ccc(S(=O)(=O)Oc3cccc(F)c3)cc2)C1=O`, the melting point lay within 175 to 177 °C.

Compound `N#CC(=Cc1cc(O)c(O)c(Br)c1)C(=O)Nc1cccc(Cl)c1` registered a melting point of 266 to 270 °C.

Turning to `C[C@H](O)[C@@H](CCc1cccc(Cl)c1Cl)n1cnc(C(N)=O)c1`, the melting point lay in the range of 70 to 75 °C.

`COc1ccc2c(c1)sc1ncc(C=O)n12` gave a melting point of 168 to 169 °C.

Compound `CC(=O)NCCc1c[nH]c2ncccc12` displayed a melting point of 168 °C.

`Cc1ccnc(-c2nc(=O)c3ccccc3s2)c1` returned a melting point of 200 °C.

For the compound `CCCN(CCC)Cc1nc(-c2ncn3c2CN(C)C(=O)c2ccccc2-3)no1`, the melting point fell in the range of 130 to 132 °C.

`OCc1ccccc1CSc1ccccc1` registered a melting point of 64 to 65 °C.

On to `COc1cc2ncnc(N3CCN(C(=O)Nc4ccc(N=Nc5ccccc5)cc4)CC3)c2cc1OC`, for which the melting point lay in the range of 244 to 246 °C.

The compound `COc1ccc(C(=O)Nc2ccc(F)c(F)c2)cc1N` registered a melting point of 171 to 172 °C.

`CCCCOc1cccc(Cn2[nH]c(N)cc2=O)c1`: the melting point is 110 °C.

The compound `CC(=O)Nc1cccc(-c2ccc3nc(-c4cccnc4N)n(-c4ccc(CNC(=O)c5cccc(F)c5)cc4)c3n2)c1` showed a melting point of 174 to 187 °C.

The compound `O=C(NCc1ccccc1)c1ccc(F)c2c1CC(N(CCCc1c[nH]c3ccc(F)cc13)C1CCC1)CO2` (centres undefined) showed a melting point of 124 °C.

With `COC=CC=C(C#N)C#N`, the melting point lay within 74 to 76 °C.

For `[N-]=[N+]=C1C(=O)CC2CCCCC2C1=O` (centres undefined), the melting point was in the range of 81 to 83 °C.

`NC(=O)[C@H](O)[C@@H](O)CO` returned a melting point of 105 to 107 °C.

Turning to `CCCCCS(=O)(=O)NC(=O)CCc1cc(OC(C)C)nn1Cc1ccc(Cl)cc1Cl`, the melting point is 126 to 129 °C.

Take `Oc1ccc2c(c1)nc(NC1CCN(CCNc3ncccn3)CC1)n2Cc1ccc(F)cc1`: the melting point turned out to be 194 °C.

Compound `CCCCOc1ccc(C(=O)c2ccc(OCCBr)cc2)cc1` had a melting point of 107 to 108 °C.

In turn, `COc1ccc(C(=O)Nc2nc(C(Cl)(Cl)Cl)ns2)cc1` came in with a melting point of 172 °C.

For the compound `COC(=O)CC1NC(=O)c2ccccc21` (centres undefined), the melting point is 136 to 138 °C.

The compound `CCOC(=O)c1ccc2ccc(O)cc2c1` gave a melting point of 155 to 156 °C.

Take `NC(=O)c1cnc2ccsc2c1Cl`: the melting point fell in the range of 180 to 182 °C.

Take `Cc1oc(-c2ccccc2)nc1COc1ccc(CCCO)cn1`: the melting point was 89 to 90 °C.

Take `NC(=O)c1ccc(CCCOCCCCCCNCC(O)c2cc(Cl)c(N)c(Cl)c2)cc1` (centres undefined): the melting point fell in the range of 91 to 94 °C.

As for `CCCCCCCOCCCCCCNCc1c(CO)ccc(O)c1CO`, the melting point lay in the range of 72 to 74 °C.

`CCCC(=NOCC)C1=C(O)CC(c2ccc(S(C)=O)cc2)CC1=O` (centres undefined) registered a melting point of 72 to 74 °C.

`Cc1nc2c(N)nc3ccccc3c2n1CC1(O)CCC1` returned a melting point above 250 °C.

Compound `Cc1nc(Cn2cnc3c2c(=O)[nH]c(=O)n3C)no1` came in with a melting point of 262 to 264 °C.

`CN=c1[nH]c2ccccc2c2nc(-c3ccc[nH]3)nn12` registered a melting point of 220 to 221 °C.

`Cn1nc(Oc2ccc([N+](=O)[O-])c(N)c2)cc1C(F)(F)F` gave a melting point of 91 to 92 °C.

Compound `CCC(=O)N=c1sc2cccc(C)c2n1N` gave a melting point of 175 to 176 °C.

Compound `O=C(O)c1ccc2c(=O)n(CCCCN3CC=C(c4ccccc4)CC3)c(=O)[nH]c2c1` had a melting point of 296 to 305 °C.

As for `CCCCCc1ncc([C@H]2CC[C@H](CCC)CC2)cn1`, the melting point was 33 °C.

As for `Clc1ccc(CCC(Cn2ccnc2)SCc2ccco2)cc1` (centres undefined), the melting point lay within 97 to 98 °C.

In the case of `CCCc1nc2c(N)nc3cc(-c4cccc(NC(C)=O)c4)ccc3c2s1`, the melting point was 173 to 176 °C.

`COC(=O)c1cccc(-c2cn(C)cc(-n3cccn3)c2=O)c1` came in with a melting point of 144 °C.

For `COC(=O)CCC(=O)c1ccc(-c2ccc(F)cc2)cc1`, the melting point fell in the range of 132 to 133 °C.

With `NC(=CC(=O)[C@H](Cc1ccccc1)N(Cc1ccccc1)Cc1ccccc1)Cc1ccccc1`, the melting point is 101 to 102 °C.

Consider `CCC1(O)CC(=O)OCc2c1cc1n(c2=O)Cc2c-1nc1ccccc1c2C1CCCCC1` (centres undefined), for which the melting point was above 250 °C.

In turn, `CCC(CC)c1nc(-c2ccncc2)c(-c2ccc(Cl)cc2)n1CC` came in with a melting point of 239 to 242 °C.

`FC(F)(F)C1(c2cc(Cl)cc(Cl)c2)CC(c2ccc(CBr)c(Cl)c2)=NO1` (centres undefined) showed a melting point of 94 to 97 °C.
